The text below walks through data of patent publication US9420796B2 (priority 2013, dated 2016).

Data set [1] relates to zebra mussels. Conditions: in vivo; cited from earlier work.
The test system of data set [2] is adult mussels. Also noted: species or system zebra mussels. Conditions: in vivo.

“And” between values parts separate entries of the source, which are not always exact repeats. Equal values may be shown once. Bounds are passed on as bounds.

`[K+].[O]=[Mn](=[O])(=[O])[O-]` [KMnO]: the Mortality rate in data set [1] is at most 10%.
For `OCl` [NaOCl, sodium hypochlorite], in data set [2], the “Day of treatment on which complete mortality was observed” value was 18 days and 23 days. Besides, the Mortality rate in data set [1] is at most 10%.
